From patent publication US9617267B2, “Compounds and methods for kinase modulation, and indications therefor” (Plexxikon Inc., priority 2009, dated 2017)
Like-named read-outs stand apart in the source and are kept apart here.

Columns and labels:
[1] = target: B-Raf (Homo sapiens (Human), UniProt P15056); test: B-Raf kinase activity biochemical assay (AlphaScreen, biotin-MEK1 phosphorylation); settings: B-Raf
Summary of the method: (§1)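 Biotin-MEK1 phosphorylation measured after 45 min kinase reaction at RT with 100 μM ATP final; compounds tested at 8 points from 0.1 mM DMSO stock.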

[2] = system: B-Raf; test: as above; settings: for Biochemical activity ratio B/V600E: ratio of IC50 B-Raf / B-Raf V600E; for Biochemical activity ratio B/C: ratio of IC50 B-Raf / c-Raf-1
Summary of the method: as §1

[3] = target: B-Raf V600E (Homo sapiens (Human), UniProt P15056, V600E); test: B-Raf V600E kinase activity biochemical assay (AlphaScreen, biotin-MEK1 phosphorylation); settings: for IC50: B-Raf V600E; for Biochemical activity ratio V600E/C: ratio of IC50 B-Raf V600E / c-Raf-1
Summary of the method: as §1

[4] = target: c-Raf-1 (Homo sapiens, UniProt P04049); test: c-Raf-1 kinase activity biochemical assay (AlphaScreen, biotin-MEK1 phosphorylation)
Summary of the method: as §1

[5] = Relative solubility by turbidity threshold concentration in aqueous buffers (pH 1.5, 4.5, 6.8, 7.4); format: physicochemical; settings: for turbidity threshold (L, M, H) 1.4: pH 1.4 [sic] (method: SGF pH 1.5); for turbidity threshold (L, M, H) 4.5: pH 4.5 (SIF); for turbidity threshold (L, M, H) 6.8: pH 6.8 (SIF); for turbidity threshold (L, M, H) 7.4: pH 7.4 (HEPES)
Summary of the method: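 Solubility class (high >250 μM, moderate 31.3–250 μM, low <31.3 μM) comes from the concentration where absorbance reaches a 0.01 threshold, averaged across 490/535/650 nm. Samples were compound dilutions from DMSO stock, 1 μL into 99 μL buffer at pH 1.5, 4.5, 6.8 or 7.4.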

[6] = target: CYP1A2 (Homo sapiens (Human), UniProt P05177); test: CYP enzyme inhibition, fluorescent substrate (CEC)
Summary of the method: (§2)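 Ten-point 1:1 compound dilutions in NADPH-regenerating cofactor mix, pre-incubated 10 min at 37 °C before enzyme/substrate addition: CYP1A2 0.5 pmol with 5 μM CEC, 15 min, 409 ex/460 em; CYP2D6 1.5 pmol with 1.5 μM AMMC, 30 min, 409 ex/530 em. IC50 from fluorescent product vs concentration.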

[7] = target: CYP2C19 (Homo sapiens (Human), UniProt P33261); test: CYP enzyme inhibition, fluorescent substrate (CEC); settings: read-out: Cyp IC50 2C19; CYP2C19, substrate CEC
Summary of the method: (§3)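 Human CYP activity was followed by the fluorescence of the metabolized product of a known substrate, which falls as metabolism is inhibited. Compounds from 100 mM DMSO stocks were serially diluted 1:1 over 10 points in co-factor mix and preincubated 10 min at 37 °C. IC50 was fitted from signal versus concentration.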

[8] = target: CYP2C9 (Homo sapiens (Human), UniProt P11712); test: CYP enzyme inhibition, fluorescent substrate (MFC)
Summary of the method: as §3

[9] = target: CYP2D6 (Homo sapiens (Human), UniProt P10635); test: CYP enzyme inhibition, fluorescent substrate (AMMC); format: in vitro ADME; settings: read-out: Cyp IC50 2D6
Summary of the method: as §2

[10] = target: CYP3A4(BFC) (Homo sapiens (Human), UniProt P08684); test: CYP enzyme inhibition, fluorescent substrate BFC
Summary of the method: as §3

[11] = target: CYP3A4(BQ) (Homo sapiens (Human), UniProt P08684); test: CYP enzyme inhibition, fluorescent substrate BQ
Protocol: CYP (Cytochrome P450) enzymes are the major drug metabolizing enzymes present in the liver. The inhibition of CYP enzyme activity (IC50) for each of CYP1A2, CYP2C19, CYP2C9, CYP2D6, CYP3A4(BFC) and CYP3A4(BQ) is determined for compounds, where inhibition of metabolism of a known substrate leads to a decrease in the fluorescence of the metabolized product. The fluorescence of the product is monitored as a function of compound concentration.
Compounds are dissolved in dimethyl sulfoxide to a concentration of 100 mM. These are diluted 1 μL into 82 μL of acetonitrile. […] These are then serially diluted 1:1 (160 μL to 160 μL co-factor mix) for a total of 10 points. A 10 μL aliquot of this final mixture is dispensed into 384 well assay plates and incubated for 10 minutes at 37° C. […] Assay plates are incubated at 37° C. […] The signal versus compound concentration is used to determine the IC50. The enzymes and substrates for this assay are obtained from BD Biosciences.

[12] = read-out: Cyp IC50 3A4(BFC), CYP3A4, substrate BFC
[13] = read-out: Cyp IC50 3A4(BQ), CYP3A4, substrate BQ
[14] = read-out: Cyp IC50 2C9, CYP2C9, substrate MFC

CYP3A4(BQ), sequence (P08684 whole entry): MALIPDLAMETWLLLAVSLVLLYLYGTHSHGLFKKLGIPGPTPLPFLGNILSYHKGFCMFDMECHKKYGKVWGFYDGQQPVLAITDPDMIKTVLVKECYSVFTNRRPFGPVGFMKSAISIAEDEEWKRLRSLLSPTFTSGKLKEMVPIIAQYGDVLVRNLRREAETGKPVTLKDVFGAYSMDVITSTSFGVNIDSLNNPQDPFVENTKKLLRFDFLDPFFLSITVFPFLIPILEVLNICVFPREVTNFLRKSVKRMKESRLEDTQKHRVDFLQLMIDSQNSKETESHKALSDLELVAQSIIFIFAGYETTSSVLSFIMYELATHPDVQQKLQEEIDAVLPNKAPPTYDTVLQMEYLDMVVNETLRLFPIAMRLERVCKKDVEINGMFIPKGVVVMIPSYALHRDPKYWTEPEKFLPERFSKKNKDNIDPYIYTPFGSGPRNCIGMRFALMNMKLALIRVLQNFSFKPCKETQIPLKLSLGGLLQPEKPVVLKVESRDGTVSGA
CYP3A4(BFC), sequence (P08684 whole entry): as above
CYP2C9, sequence (P11712 whole entry): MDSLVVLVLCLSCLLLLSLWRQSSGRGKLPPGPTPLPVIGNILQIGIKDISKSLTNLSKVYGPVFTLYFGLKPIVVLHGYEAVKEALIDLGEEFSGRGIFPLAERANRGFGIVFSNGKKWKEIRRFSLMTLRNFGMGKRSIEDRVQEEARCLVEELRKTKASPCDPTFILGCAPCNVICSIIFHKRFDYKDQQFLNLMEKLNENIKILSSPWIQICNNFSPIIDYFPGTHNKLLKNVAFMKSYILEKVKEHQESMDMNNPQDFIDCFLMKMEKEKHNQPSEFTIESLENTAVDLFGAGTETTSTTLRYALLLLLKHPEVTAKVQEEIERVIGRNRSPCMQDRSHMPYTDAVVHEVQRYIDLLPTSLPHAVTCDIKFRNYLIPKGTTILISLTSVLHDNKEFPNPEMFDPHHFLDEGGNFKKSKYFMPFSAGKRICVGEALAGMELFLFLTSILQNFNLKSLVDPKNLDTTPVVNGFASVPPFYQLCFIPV
CYP1A2, sequence (P05177 whole entry): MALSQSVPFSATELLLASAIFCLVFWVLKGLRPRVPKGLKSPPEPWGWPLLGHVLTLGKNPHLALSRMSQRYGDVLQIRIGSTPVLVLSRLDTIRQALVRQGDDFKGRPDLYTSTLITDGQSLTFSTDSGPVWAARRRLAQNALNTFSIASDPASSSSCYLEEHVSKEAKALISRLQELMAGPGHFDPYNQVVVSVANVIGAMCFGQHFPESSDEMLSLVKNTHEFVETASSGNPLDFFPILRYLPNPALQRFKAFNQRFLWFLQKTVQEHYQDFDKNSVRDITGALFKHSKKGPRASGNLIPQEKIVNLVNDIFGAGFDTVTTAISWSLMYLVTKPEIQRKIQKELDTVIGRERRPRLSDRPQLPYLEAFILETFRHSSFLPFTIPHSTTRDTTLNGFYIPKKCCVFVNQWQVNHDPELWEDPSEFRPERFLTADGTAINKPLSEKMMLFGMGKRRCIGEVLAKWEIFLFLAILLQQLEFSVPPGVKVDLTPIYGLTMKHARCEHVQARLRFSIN
CYP2C19, sequence (P33261 whole entry): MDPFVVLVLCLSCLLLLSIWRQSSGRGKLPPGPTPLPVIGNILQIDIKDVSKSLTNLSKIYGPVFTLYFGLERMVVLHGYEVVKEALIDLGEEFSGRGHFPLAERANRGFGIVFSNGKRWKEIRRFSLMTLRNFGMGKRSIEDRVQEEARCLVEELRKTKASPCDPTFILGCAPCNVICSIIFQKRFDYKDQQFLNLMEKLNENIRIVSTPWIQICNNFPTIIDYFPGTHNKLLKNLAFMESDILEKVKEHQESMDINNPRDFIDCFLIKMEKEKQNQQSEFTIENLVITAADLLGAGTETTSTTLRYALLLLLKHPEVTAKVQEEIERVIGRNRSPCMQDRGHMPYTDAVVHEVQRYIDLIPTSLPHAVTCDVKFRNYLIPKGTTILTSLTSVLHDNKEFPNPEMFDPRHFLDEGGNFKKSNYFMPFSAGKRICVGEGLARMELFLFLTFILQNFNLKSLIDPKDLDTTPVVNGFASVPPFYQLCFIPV
CYP2D6, sequence (P10635 whole entry): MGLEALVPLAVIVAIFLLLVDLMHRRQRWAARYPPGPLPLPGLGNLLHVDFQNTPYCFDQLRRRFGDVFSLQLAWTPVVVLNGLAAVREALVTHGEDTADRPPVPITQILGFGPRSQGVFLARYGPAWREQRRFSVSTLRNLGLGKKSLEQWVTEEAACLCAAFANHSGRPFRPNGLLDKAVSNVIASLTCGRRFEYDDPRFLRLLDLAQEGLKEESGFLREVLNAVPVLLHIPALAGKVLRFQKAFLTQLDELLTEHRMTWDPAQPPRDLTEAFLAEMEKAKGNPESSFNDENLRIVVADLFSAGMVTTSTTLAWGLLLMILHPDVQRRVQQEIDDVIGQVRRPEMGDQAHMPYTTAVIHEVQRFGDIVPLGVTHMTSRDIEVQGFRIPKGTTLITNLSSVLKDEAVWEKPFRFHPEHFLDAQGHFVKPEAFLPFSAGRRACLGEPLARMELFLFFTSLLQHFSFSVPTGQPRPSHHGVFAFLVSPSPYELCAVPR
B-Raf V600E, sequence (P15056 whole entry V600E): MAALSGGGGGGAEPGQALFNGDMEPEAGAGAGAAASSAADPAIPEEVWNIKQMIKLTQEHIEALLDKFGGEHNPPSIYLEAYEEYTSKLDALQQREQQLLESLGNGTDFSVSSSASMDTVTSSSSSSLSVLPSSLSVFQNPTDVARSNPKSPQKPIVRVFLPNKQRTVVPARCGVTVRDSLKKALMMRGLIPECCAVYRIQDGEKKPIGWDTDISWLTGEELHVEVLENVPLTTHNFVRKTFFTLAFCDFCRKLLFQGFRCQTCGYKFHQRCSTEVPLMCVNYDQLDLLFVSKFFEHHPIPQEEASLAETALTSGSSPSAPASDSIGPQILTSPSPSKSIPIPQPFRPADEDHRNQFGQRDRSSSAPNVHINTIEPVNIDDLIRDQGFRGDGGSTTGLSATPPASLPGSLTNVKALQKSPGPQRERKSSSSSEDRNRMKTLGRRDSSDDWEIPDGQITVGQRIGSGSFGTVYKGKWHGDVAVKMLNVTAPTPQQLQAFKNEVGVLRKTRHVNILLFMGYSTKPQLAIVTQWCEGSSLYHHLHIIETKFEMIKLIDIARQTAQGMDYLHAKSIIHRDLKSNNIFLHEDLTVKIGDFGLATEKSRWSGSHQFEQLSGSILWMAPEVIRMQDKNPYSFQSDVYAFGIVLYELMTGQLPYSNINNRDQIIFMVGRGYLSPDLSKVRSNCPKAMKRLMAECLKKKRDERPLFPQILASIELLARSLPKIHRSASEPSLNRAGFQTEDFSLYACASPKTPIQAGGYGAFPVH
B-Raf (Homo sapiens (Human), UniProt P15056), sequence (P15056 whole entry): as the sequence (P15056 whole entry V600E) above, with E600V counted along it
c-Raf-1, sequence (P04049 whole entry, looked up): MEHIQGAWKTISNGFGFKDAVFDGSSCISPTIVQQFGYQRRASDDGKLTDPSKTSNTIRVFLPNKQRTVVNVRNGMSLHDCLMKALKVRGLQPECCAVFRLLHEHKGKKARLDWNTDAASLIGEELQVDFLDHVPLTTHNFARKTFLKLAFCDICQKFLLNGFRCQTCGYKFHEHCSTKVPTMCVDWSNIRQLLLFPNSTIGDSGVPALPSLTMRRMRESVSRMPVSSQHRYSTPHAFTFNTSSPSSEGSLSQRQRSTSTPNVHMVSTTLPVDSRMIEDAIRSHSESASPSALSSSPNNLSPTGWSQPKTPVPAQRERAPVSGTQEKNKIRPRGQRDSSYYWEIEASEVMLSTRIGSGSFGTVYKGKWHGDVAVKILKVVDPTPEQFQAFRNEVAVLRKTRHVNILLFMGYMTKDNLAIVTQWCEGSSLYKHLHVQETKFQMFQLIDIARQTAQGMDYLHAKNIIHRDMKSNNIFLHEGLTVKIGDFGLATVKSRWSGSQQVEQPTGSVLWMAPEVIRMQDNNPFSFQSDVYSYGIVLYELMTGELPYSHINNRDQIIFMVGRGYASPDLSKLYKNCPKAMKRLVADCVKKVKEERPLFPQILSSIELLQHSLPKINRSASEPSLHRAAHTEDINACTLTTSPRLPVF

## COc1ncnc2[nH]cc(C(=O)c3c(F)ccc(NS(=O)(=O)CC(C)C)c3F)c12 [P-1004, 2-Methyl-propane-1-sulfonic acid [2,4-difluoro-3-(4-methoxy-7H-pyrrolo[2,3-d]pyrimidine-5-carbonyl)-phenyl]-amide]
[1]
  IC50: > 0.1 µM
[2]
  Biochemical activity ratio B/V600E: >10
  Biochemical activity ratio B/C: >10
[3]
  IC50: < 0.1 µM
  Biochemical activity ratio V600E/C: 0.1-10
[4]
  IC50: < 0.1 µM
[5]
  turbidity threshold (L, M, H) 1.4: H (high solubility if the threshold concentration is >250 μm)
  turbidity threshold (L, M, H) 4.5: H (high solubility if the threshold concentration is >250 μm)
  turbidity threshold (L, M, H) 6.8: H (high solubility if the threshold concentration is >250 μm)
  turbidity threshold (L, M, H) 7.4: H (high solubility if the threshold concentration is >250 μm)
[6]; human, 15 min
  IC50: > 10 µM
[7]
  IC50: > 10 µM
[8]
  IC50: 5 to 10 µM
[9]
  IC50: > 10 µM
[10]; [12]
  IC50: > 10 µM
[11]; [13]
  IC50: > 10 µM

## COCCNc1ncnc2[nH]cc(C(=O)c3c(F)ccc(NS(=O)(=O)c4ccc(C(F)(F)F)cc4)c3F)c12 [P-1058, N-{2,4-Difluoro-3-[4-(2-methoxy-ethylamino)-7H-pyrrolo[2,3-d]pyrimidine-5-carbonyl]-phenyl}-4-trifluoromethyl-benzenesulfonamide]
[1]
  IC50: < 0.1 µM
[2]
  Biochemical activity ratio B/V600E: 0.1-10
  Biochemical activity ratio B/C: 0.1-10
[3]
  IC50: > 0.1 µM
  Biochemical activity ratio V600E/C: >10
[4]
  IC50: < 0.1 µM
[5]
  turbidity threshold (L, M, H) 1.4: M (moderate solubility if the threshold concentration is 31.3 μM to 250 μM)
  turbidity threshold (L, M, H) 4.5: L (low solubility if the threshold concentration is <31.3 μM)
  turbidity threshold (L, M, H) 6.8: L (low solubility if the threshold concentration is <31.3 μM)
  turbidity threshold (L, M, H) 7.4: L (low solubility if the threshold concentration is <31.3 μM)
[6]; human, 15 min
  IC50: > 10 µM
[7]
  IC50: > 10 µM
[8]; [14]
  IC50: > 10 µM
[9]
  IC50: > 10 µM
[10]
  IC50: 5 to 10 µM
[11]; [13]
  IC50: > 10 µM

## CCCS(=O)(=O)Nc1ccc(F)c(C(=O)c2c[nH]c3ncnc(Nc4ccccc4)c23)c1F [P-1048, Propane-1-sulfonic acid [2,4-difluoro-3-(4-phenylamino-7H-pyrrolo[2,3-d]pyrimidine-5-carbonyl)-phenyl]-amide]
[3]
  IC50: < 0.1 µM
[6]; human, 15 min
  IC50: > 10 µM
[7]
  IC50: > 10 µM
[8]; [14]
  IC50: > 10 µM
[9]
  IC50: > 10 µM
[10]; [12]
  IC50: > 10 µM
[11]; [13]
  IC50: > 10 µM

## CCCS(=O)(=O)Nc1ccc(F)c(C(=O)c2c[nH]c3ncnc(Nc4ccccn4)c23)c1F [P-1077, Propane-1-sulfonic acid {2,4-difluoro-3-[4-(pyridin-2-ylamino)-7H-pyrrolo[2,3-d]pyrimidine-5-carbonyl]-phenyl}-amide]
[5]
  turbidity threshold (L, M, H) 1.4: H (high solubility if the threshold concentration is >250 μm)
  turbidity threshold (L, M, H) 4.5: L (low solubility if the threshold concentration is <31.3 μM)
  turbidity threshold (L, M, H) 6.8: L (low solubility if the threshold concentration is <31.3 μM)
  turbidity threshold (L, M, H) 7.4: L (low solubility if the threshold concentration is <31.3 μM)
[6]; human, 15 min
  IC50: > 10 µM
[7]
  IC50: > 10 µM
[8]; [14]
  IC50: > 10 µM
[9]
  IC50: > 10 µM
[10]; [12]
  IC50: > 10 µM
[11]; [13]
  IC50: > 10 µM

## Cc1nn(C)cc1Nc1ncnc2[nH]cc(C(=O)c3c(F)ccc(NS(=O)(=O)c4ccccc4F)c3F)c12 [P-1154, N-{3-[4-(1,3-Dimethyl-1H-pyrazol-4-ylamino)-7H-pyrrolo[2,3-d]pyrimidine-5-carbonyl]-2,4-difluoro-phenyl}-2-fluoro-benzenesulfonamide]
[5]
  turbidity threshold (L, M, H) 1.4: L (low solubility if the threshold concentration is <31.3 μM)
  turbidity threshold (L, M, H) 4.5: L (low solubility if the threshold concentration is <31.3 μM)
  turbidity threshold (L, M, H) 6.8: L (low solubility if the threshold concentration is <31.3 μM)
  turbidity threshold (L, M, H) 7.4: L (low solubility if the threshold concentration is <31.3 μM)
[6]; human, 15 min
  IC50: > 10 µM
[7]
  IC50: > 10 µM
[8]; [14]
  IC50: > 10 µM
[9]
  IC50: > 10 µM
[10]; [12]
  IC50: > 10 µM
[11]; [13]
  IC50: > 10 µM

## CCCS(=O)(=O)Nc1ccc(F)c(C(=O)c2c[nH]c3ncnc(NC4CCCC4)c23)c1F [P-1081, Propane-1-sulfonic acid [3-(4-cyclopentylamino-7H-pyrrolo[2,3-d]pyrimidine-5-carbonyl)-2,4-difluoro-phenyl]-amide]
[5]
  turbidity threshold (L, M, H) 1.4: H (high solubility if the threshold concentration is >250 μm)
  turbidity threshold (L, M, H) 4.5: L (low solubility if the threshold concentration is <31.3 μM)
  turbidity threshold (L, M, H) 6.8: L (low solubility if the threshold concentration is <31.3 μM)
  turbidity threshold (L, M, H) 7.4: L (low solubility if the threshold concentration is <31.3 μM)
[6]; human, 15 min
  IC50: > 10 µM
[7]
  IC50: > 10 µM
[8]; [14]
  IC50: > 10 µM
[9]
  IC50: > 10 µM
[10]; [12]
  IC50: > 10 µM
[11]; [13]
  IC50: > 10 µM

## CCCS(=O)(=O)Nc1ccc(F)c(C(=O)c2c[nH]c3ncnc(Nc4cccnc4)c23)c1F [P-1078, Propane-1-sulfonic acid {2,4-difluoro-3-[4-(pyridin-3-ylamino)-7H-pyrrolo[2,3-d]pyrimidine-5-carbonyl]-phenyl}-amide]
[5]
  turbidity threshold (L, M, H) 1.4: M (moderate solubility if the threshold concentration is 31.3 μM to 250 μM)
  turbidity threshold (L, M, H) 4.5: L (low solubility if the threshold concentration is <31.3 μM)
  turbidity threshold (L, M, H) 6.8: L (low solubility if the threshold concentration is <31.3 μM)
  turbidity threshold (L, M, H) 7.4: L (low solubility if the threshold concentration is <31.3 μM)
[6]; human, 15 min
  IC50: > 10 µM
[7]
  IC50: > 10 µM
[8]; [14]
  IC50: < 5 µM
[9]
  IC50: > 10 µM
[10]; [12]
  IC50: > 10 µM
[11]
  IC50: 5 to 10 µM

## O=C(c1c(F)ccc(NS(=O)(=O)c2cc(F)ccc2F)c1F)c1c[nH]c2ncnc(C3CC3)c12 [P-1107, N-[3-(4-Cyclopropyl-7H-pyrrolo[2,3-d]pyrimidine-5-carbonyl)-2,4-difluoro-phenyl]-2,5-difluoro-benzenesulfonamide]
[5]
  turbidity threshold (L, M, H) 1.4: M (moderate solubility if the threshold concentration is 31.3 μM to 250 μM)
  turbidity threshold (L, M, H) 4.5: L (low solubility if the threshold concentration is <31.3 μM)
  turbidity threshold (L, M, H) 6.8: M (moderate solubility if the threshold concentration is 31.3 μM to 250 μM)
  turbidity threshold (L, M, H) 7.4: M (moderate solubility if the threshold concentration is 31.3 μM to 250 μM)
[6]
  IC50: 5 to 10 µM
[7]
  IC50: > 10 µM
[8]; [14]
  IC50: > 10 µM
[9]
  IC50: > 10 µM
[10]; [12]
  IC50: > 10 µM
[11]; [13]
  IC50: > 10 µM

## CC(C)Nc1ncnc2[nH]cc(C(=O)c3c(F)ccc(NS(=O)(=O)c4ccccc4F)c3F)c12 [P-1073, N-[2,4-Difluoro-3-(4-isopropylamino-7H-pyrrolo[2,3-d]pyrimidine-5-carbonyl)-phenyl]-2-fluoro-benzenesulfonamide]
[5]
  turbidity threshold (L, M, H) 1.4: M (moderate solubility if the threshold concentration is 31.3 μM to 250 μM)
  turbidity threshold (L, M, H) 4.5: L (low solubility if the threshold concentration is <31.3 μM)
  turbidity threshold (L, M, H) 6.8: L (low solubility if the threshold concentration is <31.3 μM)
  turbidity threshold (L, M, H) 7.4: L (low solubility if the threshold concentration is <31.3 μM)
[6]; read-out: Cyp IC50 1A2, CYP1A2, substrate CEC
  IC50: > 10 µM
[7]
  IC50: > 10 µM
[8]; [14]
  IC50: > 10 µM
[9]
  IC50: > 10 µM
[10]; [12]
  IC50: > 10 µM
[11]; [13]
  IC50: > 10 µM
